Results taken from patent publication US20060148730A1, “Method of treating tuberculosis” (priority 2003, published 2006).
≈ marks a conversion by molar mass, not a printed value.

What follows are compounds tested on M. tuberculosis H37Rv (assay: MIC vs. M. tuberculosis H37Rv, microplate Alamar Blue assay (MABA)). Conditions: Mycobacterium tuberculosis, H37RV, Table 4; read-out: MIC.
Type: cell-based

SMILES | MIC [µM]
CC[C@H]1OC(=O)[C@H](C)[C@@H](O[C@H]2CC(C)(OC)[C@@H](O)[C@H](C)O2)[C@H](C)[C@@H](O[C@@H]2O[C@H](C)C[C@H](N(C)C)[C@H]2O)[C@](C)(OC)C[C@@H](C)C(=O)[C@H](C)[C@H]2N(CC/C=C\c3ccccc3)C(=O)O[C@]12C (stereo partly shown) [ITR0020] | 6.6 (≈ 5.96 µg/mL)

Same assay, conditions: Table 3; parallel-synthesis carbazate library products, SPE purified; read-out: MIC

SMILES | MIC [µM]
CC[C@H]1OC(=O)[C@H](C)[C@@H](O[C@H]2CC(C)(OC)[C@@H](O)[C@H](C)O2)[C@H](C)[C@@H](O[C@@H]2O[C@H](C)C[C@H](N(C)C)[C@H]2O)[C@](C)(OC)C[C@@H](C)C(=O)[C@H](C)[C@H]2N(NCc3sccc3Oc3ccccc3)C(=O)O[C@]12C (stereo partly shown) [G4′] | 13 (≈ 12.7 µg/mL)
CC[C@H]1OC(=O)[C@H](C)[C@@H](O[C@H]2CC(C)(OC)[C@@H](O)[C@H](C)O2)[C@H](C)[C@@H](O[C@@H]2O[C@H](C)C[C@H](N(C)C)[C@H]2O)[C@](C)(OC)C[C@@H](C)C(=O)[C@H](C)[C@H]2N(NCC3=Cc4ccccc4OC3)C(=O)O[C@]12C (stereo partly shown) [G6′] | 11 (≈ 10.3 µg/mL)
CC[C@H]1OC(=O)[C@H](C)[C@@H](O[C@H]2CC(C)(OC)[C@@H](O)[C@H](C)O2)[C@H](C)[C@@H](O[C@@H]2O[C@H](C)C[C@H](N(C)C)[C@H]2O)[C@](C)(OC)C[C@@H](C)C(=O)[C@H](C)[C@H]2N(NCc3cc(Cl)cc(Br)c3O)C(=O)O[C@]12C (stereo partly shown) [G8′] | 14 (≈ 14.1 µg/mL)
CC[C@H]1OC(=O)[C@H](C)[C@@H](O[C@H]2CC(C)(OC)[C@@H](O)[C@H](C)O2)[C@H](C)[C@@H](O[C@@H]2O[C@H](C)C[C@H](N(C)C)[C@H]2O)[C@](C)(OC)C[C@@H](C)C(=O)[C@H](C)[C@H]2N(NCC3CSN=N3)C(=O)O[C@]12C (stereo partly shown) [G10′] | >16
CC[C@H]1OC(=O)[C@H](C)[C@@H](O[C@H]2CC(C)(OC)[C@@H](O)[C@H](C)O2)[C@H](C)[C@@H](O[C@@H]2O[C@H](C)C[C@H](N(C)C)[C@H]2O)[C@](C)(OC)C[C@@H](C)C(=O)[C@H](C)[C@H]2N(NCc3ccc(N4CCC(c5ccccc5OC)CC4)c([N+](=O)[O-])c3)C(=O)O[C@]12C (stereo partly shown) [G12′] | 19 (≈ 21.1 µg/mL)
CC[C@H]1OC(=O)[C@H](C)[C@@H](O[C@H]2CC(C)(OC)[C@@H](O)[C@H](C)O2)[C@H](C)[C@@H](O[C@@H]2O[C@H](C)C[C@H](N(C)C)[C@H]2O)[C@](C)(OC)C[C@@H](C)C(=O)[C@H](C)[C@H]2N(NCc3c(Cl)cccc3Cl)C(=O)O[C@]12C (stereo partly shown) [H1′] | 11 (≈ 10.4 µg/mL)
CC[C@H]1OC(=O)[C@H](C)[C@@H](O[C@H]2CC(C)(OC)[C@@H](O)[C@H](C)O2)[C@H](C)[C@@H](O[C@@H]2O[C@H](C)C[C@H](N(C)C)[C@H]2O)[C@](C)(OC)C[C@@H](C)C(=O)[C@H](C)[C@H]2N(NCc3cccc4nsnc34)C(=O)O[C@]12C (stereo partly shown) [H3′] | >22
CC[C@H]1OC(=O)[C@H](C)[C@@H](O[C@H]2CC(C)(OC)[C@@H](O)[C@H](C)O2)[C@H](C)[C@@H](O[C@@H]2O[C@H](C)C[C@H](N(C)C)[C@H]2O)[C@](C)(OC)C[C@@H](C)C(=O)[C@H](C)[C@H]2N(NCc3ccc4c(c3)nnn4C)C(=O)O[C@]12C (stereo partly shown) [H7′] | >22
CC[C@H]1OC(=O)[C@H](C)[C@@H](O[C@H]2CC(C)(OC)[C@@H](O)[C@H](C)O2)[C@H](C)[C@@H](O[C@@H]2O[C@H](C)C[C@H](N(C)C)[C@H]2O)[C@](C)(OC)C[C@@H](C)C(=O)[C@H](C)[C@H]2N(NCc3c(Sc4ccc(Cl)cc4)nc4sccn34)C(=O)O[C@]12C (stereo partly shown) [H11′] | 35.4 (≈ 37.8 µg/mL)

Same assay, conditions: Table 4; read-out: MIC

SMILES | MIC [µM]
CCC1OC(=O)C(C)C(OC2CC(C)(OC)C(O)C(C)O2)C(C)C(OC2OC(C)CC(N(C)C)C2O)C(C)(OC)CC(C)C(=NOC2CCCNC2)C(C)C(O)C1(C)O (stereo not shown) [ITR0009] | 24 (≈ 20.3 µg/mL)
CCC1OC(=O)C(C)C(OC2CC(C)(OC)C(O)C(C)O2)C(C)C(OC2OC(C)CC(N(C)C)C2O)C(C)(OC)CC(C)C(=NOC2CCCN(C(=O)OCc3ccccc3)C2)C(C)C(O)C1(C)O (stereo not shown) [ITR0011] | 6.0 (≈ 5.88 µg/mL)

Same assay, conditions: Table 5; read-out: MIC

SMILES | MIC [µM]
CCC1OC(=O)C(C)C(OC2CC(C)(OC)C(OC(C)=O)C(C)O2)C(C)C(OC2OC(C)CC(N(C)C)C2OC(C)=O)C(C)(OC)CC(C)C(=O)C(C)C2N(NCCCc3ccnc4ccccc34)C(=O)OC12C (stereo not shown) [ITR0005] | 7.7 (≈ 8.02 µg/mL)
